Reference: US9078901B2, “Pharmacological modulation of telomere length in cancer cells for prevention and treatment of cancer” (priority 2007, dated 2015)
Entries after “also recorded” stand apart in the source; their conditions may differ.

Legend:
[1] = test system: HeLa cells; experiment: Tumor growth progression assay, s.c. HeLa xenografts in nude mice; assay type: in vivo, nude (nu/nu) mice; conditions: 1×10^6 HeLa cells s.c., GCV 2 mg/ml in drinking water ad libitum from day zero
Text: Exemplary in vivo assays of anti-tumor efficacy of ACV, PCV and/or GCV using nude mice subcutaneous (s.c.) tumors grown from the human HeLa cancer cell line (i.e., xenografts bearing mice) as cancer models are described below. Human cancerous cells needed for in vivo assays may be prepared, for example, as follows: Telomerase positive HeLa human cell line and telomerase negative U-2 OS human cell line are obtained from public sources. Cells are maintained in D-MEM media supplemented with 10% foetal calf serum at 37° C. in a humidified atmosphere of 5% CO2. For in vivo assay, appropriate host, e.g., nude (nu/nu) mice of about 5-7 weeks old are obtained and maintained in pathogen-free conditions. Approximately, 1×10^6 HeLa cells (and/or U-2 OS cells) contained in 200 μl of serum-free media are delivered to all animals, briefly anaesthetized with Metofane, by subcutaneous (s.c.) injection in flank. Then the mice are divided into experimental group and control group. Appropriate concentrations of ACV, PCV and/or GCV are used for tumor growth progression or regression assays. In one embodiment, impairment of s.c. tumor growth or time to progression rather than decrease in size of an established tumor (regression) is assessed. […] Tumors are measured every 2-3 days. […] Tumor volume is calculated with formula 4/3πr^3, where r is the radius of the tumor.

[2] = test system: U-2 OS cells; experiment: Flow-FISH telomere length (PNA-FITC probe) and PI cell cycle analysis in treated telomerase negative U-2 OS cells; assay type: cell-based, human; conditions: for apoptosis (flow-FISH) / cell cycle (PI) / telomere length (flow-FISH): ACV 3 μM; for apoptosis (flow-FISH) / cell cycle (PI) / telomere length (flow-FISH) / apoptosis / cell cycle distribution / telomere length: GCV 1.5 μM, PCV 1.5 μM; for apoptosis / cell cycle distribution / telomere length: after 10 and 14 days of treatments, ACV 3.0 μM
Experimental: (§1) Both telomerase positive (HeLa) telomerase negative (U-2 OS) cell lines were used. Appropriate assays were performed to detect and confirm telomerase/L1RT specific activity in these cells.
(§2) Telomere length in ACV, GCV and PCV treated and untreated cell lines was measured by flow cytometry with a telomere-specific peptide nucleic acid (PNA) probe^23,24. To determine cell cycle distribution, cells were stained with propidium iodide (PI)^23.
(§3) The U-2 OS (osteosarcoma) and HeLa (uterine cervix) cell lines used in this study were obtained from American Type Culture Collection (Rockville, Md.). Cells were cultured in D-MEM media supplemented with 10% fetal calf serum at 37° C. in a humidified atmosphere of 5% CO2. For treatment of the cells with ACV, the media was supplemented with 3 μM of acyclovir (acyclovir, TEVA Pharm. Ind. Ltd, Israel). For treatment of the cells with GCV, the media was supplemented with 1.5 μM of GCV (Cymevene, Hoffman-La Roche). For treatment of the cells with PCV, the media was supplemented with 1.5 μM of PCV (penciclovir, Merck & Co.).
(§4) For telomere length measurement by flow cytometry, cells were stained with telomere specific FITC conjugated (C3TA2)3 PNA (Applied Biosystems) probe and contrastained with 0.06 μg/ml PI as described by Rufer et al., 1998, Telomere length dynamics in human lymphocyte subpopulations were measured by flow cytometry, Nat. Biotechnol. 16, 743-747.

[3] = test system: HeLa cells; experiment: Flow-FISH telomere length (PNA-FITC probe) and PI cell cycle analysis in treated telomerase positive HeLa cells; assay type: cell-based, human; conditions: for apoptosis (flow-FISH) / cell cycle (PI) / telomere length (flow-FISH): 10 days of treatment, ACV 3 μM, FIG. 1; for apoptosis (flow-FISH) / cell cycle (PI) / telomere length (flow-FISH) / apoptosis / cell cycle distribution / telomere length: GCV 1.5 μM, PCV 1.5 μM; for apoptosis / cell cycle distribution / telomere length: after 10 and 14 days of treatments, ACV 3.0 μM; for cell cycle distribution (PI): treated for 14 days
Experimental: as §1, §2, §3, §4

| SMILES | s.c. tumor development [1] | apoptosis (flow-FISH) ([2]; 10 days of treatment, FIG. 2) | cell cycle (PI) ([2]; 10 days of treatment, FIG. 2) | telomere length (flow-FISH) ([2]; 10 days of treatment, FIG. 2) | cell cycle (PI) ([2]; 14 days of treatment) | apoptosis (flow-FISH) ([2]; 14 days of treatment, FIG. 3) | telomere length (flow-FISH) ([2]; 14 days of treatment, FIG. 3) | apoptosis [2] | cell cycle distribution [2] | telomere length [2] | apoptosis (flow-FISH) [3] | cell cycle (PI) [3] | telomere length (flow-FISH) [3] | apoptosis [3] | cell cycle distribution [3] | telomere length [3] | cell cycle distribution (PI) [3] | onset of changes in cell cycle distribution ([2]; ACV treatment) | onset of changes in cell cycle distribution ([3]; ACV treatment) |
| --- | --- | --- | --- | --- | --- | --- | --- | --- | --- | --- | --- | --- | --- | --- | --- | --- | --- | --- | --- |
| Nc1nc(O)c2ncn(COC(CO)CO)c2n1 [GCV] | remain tumor free | massive apoptosis | changes in cell cycle | decrease in telomere length | changes in cell cycle; also recorded: G2 arrest of cell cycle | massive apoptosis | decrease in telomere length | massive apoptosis | G2 arrest | telomere shortening | massive apoptosis | changes in cell cycle | decrease in telomere length | massive apoptosis | G2 arrest | telomere shortening | G2 arrest of cell cycle | – | – |
| Nc1nc2c(ncn2CCC(CO)CO)c(=O)[nH]1 [PCV] | – | massive apoptosis | changes in cell cycle | decrease in telomere length | changes in cell cycle; also recorded: G2 arrest of cell cycle | massive apoptosis | decrease in telomere length | massive apoptosis | G2 arrest | telomere shortening | massive apoptosis | changes in cell cycle | decrease in telomere length | massive apoptosis | G2 arrest | telomere shortening | G2 arrest of cell cycle | – | – |
| Nc1nc2c(ncn2COCCO)c(=O)[nH]1 [ACV, 9-[2(hydromethoxy)-methyl]guanine] | – | massive apoptosis | changes in cell cycle | decrease in telomere length | changes in cell cycle; also recorded: G2 arrest of cell cycle | massive apoptosis | decrease in telomere length | massive apoptosis | G2 arrest | telomere shortening | massive apoptosis | changes in cell cycle | decrease in telomere length | massive apoptosis | G2 arrest | telomere shortening | G2 arrest of cell cycle | could be detected after only few days | could be detected after only few days |
